# Test results taken from patent publication US20060004043A1, “Indazole compounds and methods of use thereof” (priority 2003, published 2006).
# Target: Rsk1 (Rattus norvegicus, UniProt Q63531)
# Test: Rsk1(r) kinase assay, 33P-ATP filter binding
# Assay type: biochemical
# Details: compound at 3 μM; [ATP] = 10 μM
# Experimental: The assays briefly described below in Examples 54-123 were carried out as described in Davies et al., Biochem. J., 351:95-105 (2000). All assays were carried out at 10 μM ATP unless otherwise noted.
# All kinases are pre-diluted to a 10× working concentration prior to addition into the assay. The composition of the dilution buffer for each kinase is described below in Table 3.
# In addition, the following abbreviations are used: h is human; r is rat; m is mouse; b is bovine; and y is yeast.
# In a final reaction volume of 25 μl, Rsk1(r) (5-10 mU) is incubated with 8 mM MOPS pH 7.0, 0.2 mM EDTA, 30 μM […], 10 mM MgAcetate and [γ-^33P-ATP] (Specific activity approx. 500 cpm/pmol, concentration as required). The reaction is initiated by the addition of Mg^2+[γ-^33P-ATP]. After incubation for 40 minutes at room temperature, the reaction is stopped by the addition of 5 μl of a 3% phosphoric acid solution. 10 μl of the reaction is then spotted onto a P30 filtermat and washed three times for 5 minutes in 75 mM phosphoric acid and once in methanol prior to drying and scintillation counting.
# Using the appropriate assay protocols as listed above, kinase inhibition data for Compounds 21 and 71 was determined for the following kinases: CDK1/cyclin B, CDK2/cyclin A, cSRC, Yes, MEK1, and Rsk1.
# Rsk1, sequence (Q63531 whole entry): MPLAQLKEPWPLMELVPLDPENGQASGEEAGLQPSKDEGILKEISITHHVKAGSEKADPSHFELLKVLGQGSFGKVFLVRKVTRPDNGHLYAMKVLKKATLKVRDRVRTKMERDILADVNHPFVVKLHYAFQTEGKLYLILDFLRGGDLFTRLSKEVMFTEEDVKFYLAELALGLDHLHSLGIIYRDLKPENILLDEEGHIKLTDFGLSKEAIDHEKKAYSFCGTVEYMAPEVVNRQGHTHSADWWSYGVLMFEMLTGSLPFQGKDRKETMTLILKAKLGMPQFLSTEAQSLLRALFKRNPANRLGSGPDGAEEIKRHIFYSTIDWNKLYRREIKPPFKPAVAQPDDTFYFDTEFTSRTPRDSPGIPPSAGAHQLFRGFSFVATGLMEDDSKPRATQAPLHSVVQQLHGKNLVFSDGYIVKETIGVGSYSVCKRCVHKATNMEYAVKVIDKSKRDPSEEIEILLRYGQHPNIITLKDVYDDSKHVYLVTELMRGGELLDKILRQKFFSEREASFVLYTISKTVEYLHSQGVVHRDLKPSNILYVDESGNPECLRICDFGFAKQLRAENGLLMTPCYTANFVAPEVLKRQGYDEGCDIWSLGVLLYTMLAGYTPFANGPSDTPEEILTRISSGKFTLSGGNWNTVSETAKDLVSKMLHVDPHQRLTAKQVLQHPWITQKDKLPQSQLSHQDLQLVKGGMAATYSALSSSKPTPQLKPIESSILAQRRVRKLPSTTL
row,Rsk1 (% control),Compound
1,4 % control,COc1ccc2cc(-c3n[nH]c4ccc(-c5n[nH]c(CN6CCOCC6)n5)cc34)ccc2c1 [Compound 20]
2,29 % control,CC(C)(C)Cc1nc(-c2ccc3[nH]nc(-c4ccc5cc(OCc6ccccn6)ccc5c4)c3c2)n[nH]1 [Compound 92]
